Literature values as cited in patent US12678479B2, “Pharmaceutical compositions comprising teixobactin” (priority 2018, dated 2026).

Tested on: MRSA ATCC 33591
Details: comparison value

For CN[C@H](CC(C)C)C(=O)N[C@H]1C(=O)N[C@@H](CC(N)=O)C(=O)N[C@H]2C(=O)N[C@H]3C(=O)N[C@H](C(=O)N[C@H](C(=O)O)c4cc(O)cc(O)c4-c4cc3ccc4O)[C@H](O[C@H]3C[C@](C)(N)[C@@H](O)[C@H](C)O3)c3ccc(c(Cl)c3)Oc3cc2cc(c3O[C@@H]2O[C@H](CO)[C@@H](O)[C@H](O)[C@H]2O[C@H]2C[C@](C)(NCc3ccc(-c4ccc(Cl)cc4)cc3)[C@@H](O)[C@H](C)O2)Oc2ccc(cc2Cl)[C@H]1O [Orbactiv, oritavancin], the effective dose is listed as 4 to 5 mg/kg.
